Assay results from PubChem BioAssay AID330 (DTP/NCI, 2004).
Toxic doses and inconclusive results are not listed. The calls were made as follows: active = survival T/C of 150% or more; inactive = T/C below 125% in these data.

System: P388 leukemia ip, CD2F1 mice, survival T/C
Assay: NCI In Vivo Anticancer Drug Screen. Data for tumor model P388 Leukemia (intraperitoneal) in CD2F1 (CDF1) mice
Settings: endpoint: median survival time, higher = longer survival
Outline: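 Mice carrying the transplanted tumor received test compound or vehicle. Survival was recorded in each group, and the value is the treated-group measurement divided by that of the vehicle-treated control group.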

[1] = dose: 60.0 mg/kg/injection, schedule: Q01DX005 (ip), vehicle: saline with Tween-80
[2] = dose: 120.0 mg/kg/injection, schedule: Q01DX005 (ip), vehicle: saline with Tween-80
[3] = dose: 240.0 mg/kg/injection, schedule: Q01DX005 (ip), vehicle: saline with Tween-80
[4] = dose: 50.0 mg/kg/injection, schedule: Q01DX009 (ip), vehicle: Klucel (hydroxypropylcellulose) (HPC)
[5] = dose: 100.0 mg/kg/injection, schedule: Q01DX009 (ip), vehicle: Klucel (hydroxypropylcellulose) (HPC)
[6] = dose: 200.0 mg/kg/injection, schedule: Q01DX009 (ip), vehicle: Klucel (hydroxypropylcellulose) (HPC)
[7] = dose: 50.0 mg/kg/injection, schedule: Q01DX009 (ip), vehicle: saline with Tween-80
[8] = dose: 100.0 mg/kg/injection, schedule: Q01DX009 (ip), vehicle: saline with Tween-80
[9] = dose: 200.0 mg/kg/injection, schedule: Q01DX009 (ip), vehicle: saline with Tween-80
[10] = dose: 50.0 mg/kg/injection, schedule: Q01DX005 (ip), vehicle: Klucel (hydroxypropylcellulose) (HPC)
[11] = dose: 100.0 mg/kg/injection, schedule: Q01DX005 (ip), vehicle: Klucel (hydroxypropylcellulose) (HPC)
[12] = dose: 200.0 mg/kg/injection, schedule: Q01DX005 (ip), vehicle: Klucel (hydroxypropylcellulose) (HPC)
[13] = dose: 25.0 mg/kg/injection, schedule: Q01DX009 (ip), vehicle: saline with Tween-80
[14] = dose: 50.0 mg/kg/injection, schedule: Q01DX005 (ip), vehicle: saline with Tween-80
[15] = dose: 100.0 mg/kg/injection, schedule: Q01DX005 (ip), vehicle: saline with Tween-80
[16] = dose: 200.0 mg/kg/injection, schedule: Q01DX005 (ip), vehicle: saline with Tween-80

Measured: T/C

CC1(C2=CCCCC2)CCC(=O)NC1=O (centres undefined)
inactive: [1] 100 % of control | [2] 98 % of control | [3] 98 % of control

CC1=NNC2(CCCCC2)C1
inactive: dose: 12.5 mg/kg/injection, schedule: Q01DX009 (ip), vehicle: water 113 % of control | dose: 25.0 mg/kg/injection, schedule: Q01DX009 (ip), vehicle: water 103 % of control | dose: 50.0 mg/kg/injection, schedule: Q01DX009 (ip), vehicle: water 94 % of control | dose: 100.0 mg/kg/injection, schedule: Q01DX009 (ip), vehicle: water 111 % of control | dose: 200.0 mg/kg/injection, schedule: Q01DX009 (ip), vehicle: water 106 % of control

CCC[As](CCC)SC1OC(C2COC(C)(C)O2)C2OC(C)(C)OC12 (centres undefined)
inactive: dose: 12.5 mg/kg/injection, schedule: Q01DX009 (ip), vehicle: distilled water + Tween-80 100 % of control | dose: 25.0 mg/kg/injection, schedule: Q01DX009 (ip), vehicle: distilled water + Tween-80 110 % of control

O=c1nc(Oc2ccc([N+](=O)[O-])cc2)nc2ccccn12
inactive: [4] 99 % of control | [5] 87 % of control | [6] 87 % of control

CCCCCCNC(=O)CNC(=O)C=[N+]=[N-]
inactive: [7] 101 % of control | [8] 101 % of control | [9] 97 % of control

N#CCCN(CCC#N)P(=O)(N(CCC#N)CCC#N)N(CCC#N)CCC#N
inactive: [10] 100 % of control | [11] 96 % of control | [12] 100 % of control

O=C1NC(=O)NC(C(=O)O)N1
inactive: dose: 12.5 mg/kg/injection, schedule: Q01DX009 (ip), vehicle: Klucel (hydroxypropylcellulose) (HPC) 105 % of control | dose: 25.0 mg/kg/injection, schedule: Q01DX009 (ip), vehicle: Klucel (hydroxypropylcellulose) (HPC) 105 % of control | [13] 94 % of control | dose: 50.0 mg/kg/injection, schedule: Q01DX009 (ip), vehicle: DMSO 103 % of control | [4] 104 % of control | [7] 100 % of control | dose: 100.0 mg/kg/injection, schedule: Q01DX009 (ip), vehicle: DMSO 100 % of control | [5] 104 % of control | [8] 100 % of control | dose: 200.0 mg/kg/injection, schedule: Q01DX009 (ip), vehicle: DMSO 97 % of control | [6] 115 % of control | [9] 95 % of control

CC(=O)N/C(=C/c1ccccc1)C(=O)N/C(=C/c1ccccc1)C(=O)O
inactive: [10] 101 % of control | [11] 99 % of control | [12] 91 % of control

CC(=O)NC1CCCCC1[Se](=O)c1ccccc1 (centres undefined)
inactive: [14] 108 % of control | [15] 100 % of control | [16] 109 % of control

N=C(N)c1ccc2cc(C(=N)N)[nH]c2c1
inactive: dose: 6.25 mg/kg/injection, schedule: Q04DX003 (ip), vehicle: saline 100 % of control | dose: 12.5 mg/kg/injection, schedule: Q04DX003 (ip), vehicle: saline 100 % of control | dose: 25.0 mg/kg/injection, schedule: Q04DX003 (ip), vehicle: saline 107 % of control

Cc1ccc(NC(=O)Oc2ccc(Cl)c(C)c2)c([N+](=O)[O-])c1
inactive: [8] 87 % of control | [9] 88 % of control

Nc1ccc(C(=O)Nc2ccc(NC(=O)c3ccco3)c(O)c2)cc1
inactive: [1] 94 % of control | [2] 91 % of control | [3] 89 % of control

CC1OC2=C(CC1O)C(=O)c1ccccc1C2=O (centres undefined)
inactive: dose: 100.0 mg/kg/injection, schedule: Q01DX001 (ip), vehicle: Klucel (hydroxypropylcellulose) (HPC) 102 % of control | dose: 200.0 mg/kg/injection, schedule: Q01DX001 (ip), vehicle: Klucel (hydroxypropylcellulose) (HPC) 102 % of control | dose: 400.0 mg/kg/injection, schedule: Q01DX001 (ip), vehicle: Klucel (hydroxypropylcellulose) (HPC) 100 % of control

S=C(Nc1ccc(N=Nc2ccccc2)cc1)SCc1ccccc1
inactive: dose: 100.0 mg/kg/injection, schedule: Q04DX003 (ip), vehicle: saline 98 % of control | dose: 200.0 mg/kg/injection, schedule: Q04DX003 (ip), vehicle: saline 92 % of control | dose: 400.0 mg/kg/injection, schedule: Q04DX003 (ip), vehicle: saline 91 % of control

CCCCCCCCCCCCCCCC(=O)NCCCCC(N)C(=O)O (centres undefined)
inactive: dose: 50.0 mg/kg/injection, schedule: Q01DX009 (ip), vehicle: suspension in saline 94 % of control | dose: 100.0 mg/kg/injection, schedule: Q01DX009 (ip), vehicle: suspension in saline 98 % of control | dose: 200.0 mg/kg/injection, schedule: Q01DX009 (ip), vehicle: suspension in saline 96 % of control

C1=C(c2ccccc2)OC(c2ccccc2)=C[P+]1(c1ccccc1)c1ccccc1
inactive: dose: 1.56 mg/kg/injection, schedule: Q01DX005 (ip), vehicle: saline with Tween-80 105 % of control | dose: 3.12 mg/kg/injection, schedule: Q01DX005 (ip), vehicle: saline with Tween-80 120 % of control | dose: 6.25 mg/kg/injection, schedule: Q01DX005 (ip), vehicle: saline with Tween-80 97 % of control

Cc1[nH]c(C)c2c(=O)ccsc12
inactive: [1] 90 % of control | [2] 99 % of control

Cc1oc(NC(=O)C(=O)O)c(C#N)c1C
inactive: [7] 88 % of control | [8] 102 % of control | [9] 88 % of control

COCC(=O)[C@]1(O)Cc2c(O)c3c(c(O)c2[C@@H](OC2CC(N)C(O)C(C)O2)C1)C(=O)c1c(OC)cccc1C3=O (some centres undefined)
inactive: dose: 6.25 mg/kg/injection, schedule: Q04DX003 (ip), vehicle: water 100 % of control | dose: 12.5 mg/kg/injection, schedule: Q04DX003 (ip), vehicle: water 100 % of control | dose: 25.0 mg/kg/injection, schedule: Q04DX003 (ip), vehicle: water 109 % of control | dose: 100.0 mg/kg/injection, schedule: Q04DX003 (ip), vehicle: water 118 % of control | dose: 200.0 mg/kg/injection, schedule: Q04DX003 (ip), vehicle: water 87 % of control

Cc1cc(=O)c2c(ccc3cc4ccccc4cc32)[nH]1
inactive: [14] 98 % of control | [15] 98 % of control | [16] 97 % of control

O=C1c2ccccc2-c2nc3ccccc3n21
inactive: dose: 100.0 mg/kg/injection, schedule: Q01DX001 (ip), vehicle: saline 100 % of control | dose: 100.0 mg/kg/injection, schedule: Q04DX002 (ip), vehicle: saline with Tween-80 100 % of control | dose: 200.0 mg/kg/injection, schedule: Q01DX001 (ip), vehicle: saline 108 % of control | dose: 200.0 mg/kg/injection, schedule: Q04DX002 (ip), vehicle: saline with Tween-80 106 % of control | dose: 400.0 mg/kg/injection, schedule: Q01DX001 (ip), vehicle: saline 106 % of control | dose: 400.0 mg/kg/injection, schedule: Q04DX002 (ip), vehicle: saline with Tween-80 100 % of control

CCCNNC(=O)c1ccncc1
inactive: [14] 100 % of control | [15] 96 % of control | [16] 105 % of control

CCCSCCCCSCCC
inactive: [8] 100 % of control | [9] 108 % of control

O=C1C2OC2C(O)(CCN(Cc2ccc3c(c2)OCO3)C(=O)C(F)(F)F)C2OC12 (centres undefined)
inactive: dose: 6.25 mg/kg/injection, schedule: Q01DX001 (ip), vehicle: saline 104 % of control | dose: 12.5 mg/kg/injection, schedule: Q01DX001 (ip), vehicle: saline 105 % of control | dose: 25.0 mg/kg/injection, schedule: Q01DX001 (ip), vehicle: saline 106 % of control

Cc1ccc(C)c(CCNC=O)c1
inactive: [13] 100 % of control | [7] 110 % of control | [8] 98 % of control | [9] 103 % of control

CCCCC(CC1CCCCC1)C(=O)O (centres undefined)
inactive: dose: 50.0 mg/kg/injection, schedule: Q01DX001 (ip), vehicle: saline with Tween-80 113 % of control | dose: 100.0 mg/kg/injection, schedule: Q01DX001 (ip), vehicle: saline with Tween-80 109 % of control | dose: 200.0 mg/kg/injection, schedule: Q01DX001 (ip), vehicle: saline with Tween-80 109 % of control

COc1cccc(C)c1NC1=NCCO1
inactive: dose: 0.78 mg/kg/injection, schedule: Q04DX003 (ip), vehicle: saline with Tween-80 100 % of control | dose: 1.56 mg/kg/injection, schedule: Q04DX003 (ip), vehicle: saline with Tween-80 100 % of control | dose: 3.13 mg/kg/injection, schedule: Q04DX003 (ip), vehicle: saline with Tween-80 104 % of control
